# Structures can show the parent of a compound that is named as a salt.
# Tested on: patient diagnosed with IDDM
# Assay: treatment of a IDDM patient, blood IDDM markers over time
# Type: in vivo, human
# Parameters: Insulin Auto Ab (<0.4) / IA2 Ab (Islet cell Ab Screen) (<0.8) / Glucose / Insulin (2-19.6) / HgbA1C / GAD-65 (<5): unit not given here
# Protocol: A patient diagnosed with IDDM was treated with 8 units of exogenous long-acting insulin per day (administered in the evening) and 1 unit of short-acting insulin per 6 grams of carbohydrate food intake (administered before each meal).
# Specific stimulation high-carb diet was introduced occasionally to monitor the patient's pancreatic ability to respond to the glycemic demands.
# Each IVIG dose was administered in one continuous infusion session. From week 16 to week 42, the patient was also treated with alpha one antitrypsin.
# Throughout the patient's treatment, the patient's blood was drawn at the time points indicated in Tables 1-2 below, and analyzed by established testing laboratories with respect to standard IDDM blood parameters (see Tables 1-2, top row of each table listing the markers assayed; the numerical values in parenthesis after some of the markers indicate normal reference levels).
# The patient was dosed at 750 mg intravenously on weeks 87, 88, 89 and 90.
# Tables 1 and 2 describe the same treatment but include data points with respect to different markers tested.
# [1] = week 19, 8 mg BID, also alpha one antitrypsin
# [2] = week 22, 8 mg BID, also alpha one antitrypsin
# [3] = week 25, 8 mg BID, also alpha one antitrypsin
# [4] = week 26, 16 mg BID, also alpha one antitrypsin
# [5] = week 29, 16 mg BID, also alpha one antitrypsin
# [6] = week 30, 16 mg BID, also alpha one antitrypsin
# [7] = week 36, 16 mg BID, also alpha one antitrypsin
# [8] = week 47, 16 mg BID, IVIG 2, 1, 1 mg/Kg in week 44
# [9] = week 50, 16 mg BID, IVIG weeks 44, 47.5
# [10] = week 53, 16 mg BID, IVIG weeks 44, 47.5, 50.5
# [11] = week 57, 16 mg BID, IVIG weeks 44-54
# [12] = week 61, 16 mg BID, IVIG weeks 44-54
# [13] = week 66, 16 mg BID, IVIG weeks 44-54
# [14] = week 70, 16 mg BID, IVIG weeks 44-54
# [15] = week 75, 16 mg BID, IVIG weeks 44-54
# [16] = week 79, 5 mg QAM & 10 mg QHS, IVIG weeks 44-54
# [17] = week 82.5, 10 mg BID, IVIG weeks 44-54
# [18] = week 87.5, 10 mg BID, IVIG 2, 1, 1 gm/Kg week 86, Rituxan 750 mg iv week 87
# [19] = week 91.25, 10 mg BID, IVIG weeks 86, 89, Rituxan 750 mg iv weeks 87-90
# [20] = week 92.25, 10 mg BID, IVIG weeks 86, 89, Rituxan 750 mg iv weeks 87-90
# [21] = week 99.25, 10 mg BID, IVIG weeks 86, 89, Rituxan 750 mg iv weeks 87-90
compound,measurement,setting,value
C[C@@H]1CCN(C(=O)CC#N)C[C@@H]1N(C)c1ncnc2[nH]ccc12 [Tofacitinib],overall weight and muscle mass,about 10 months post initiation of tofacitinib treatment,gained overall weight and muscle mass
same,auto-antibody blood titers,"about 10 months post initiation, tofacitinib before IVIG",no further change
same,combination effect of tofacitinib treatment and IVIG treatment,"human, in vivo",synergistic effect
same,need for short-acting insulin,"starting three days post initiation, 5 mg twice-daily (free base)",did not receive any short-acting insulin
same,need for exogenous insulin,"starting three weeks post initiation, 5 mg twice-daily (free base)",did not receive any exogenous insulin
same,pancreatic islet-cell auto-antibodies and anti-insulin auto-antibodies,upon treatment with tofacitinib (Table 1),reduction
"C[C@@H]1CCN(C(=O)CC#N)C[C@@H]1N(C)c1ncnc2[nH]ccc12 [tofacitinib citrate, (3R,4R)-4-methyl-3-(methyl-7H-pyrrolo[2,3-d]pyrimidin-4-ylamino)-β-oxo-1-piperidinepropanenitrile, 2-hydroxy-1,2,3-propanetricarboxylate (1:1)]",C-Peptide (0.8-3.85),"week 4, 8 mg BID",2.66
same,IA2 Ab (Islet cell Ab Screen) (<0.8),"week 4, 8 mg BID",43.8
same,Insulin (2-19.6),"week 4, 8 mg BID",17.1
same,Insulin Auto Ab (<0.4),"week 4, 8 mg BID",7.2
same,C-Peptide (0.8-3.85),"week 9, 8 mg BID",1.5
same,HgbA1C,"week 9, 8 mg BID",7.2
same,Insulin (2-19.6),"week 9, 8 mg BID",7.8
same,C-Peptide (0.8-3.85),"week 10, 8 mg BID",4.7
same,IA2 Ab (Islet cell Ab Screen) (<0.8),"week 10, 8 mg BID",>50
same,Insulin (2-19.6),"week 10, 8 mg BID",34.5
same,Insulin Auto Ab (<0.4),"week 10, 8 mg BID",64
same,C-Peptide (0.8-3.85),"week 13, 8 mg BID",1.43
same,Glucose,"week 13, 8 mg BID",104
same,IA2 Ab (Islet cell Ab Screen) (<0.8),"week 13, 8 mg BID",46.2
same,Insulin Auto Ab (<0.4),"week 13, 8 mg BID",6.1
same,Islet Cell Ab Titers,"week 13, 8 mg BID",320
same,C-Peptide (0.8-3.85),[1],1.79
same,GAD-65 (<5),[1],<5
same,Glucose,[1],126
same,HgbA1C,[1],6.1
same,IA2 Ab (Islet cell Ab Screen) (<0.8),[1],37.7
same,Insulin (2-19.6),[1],12
same,Insulin Auto Ab (<0.4),[1],6.6
same,Islet Cell Ab Titers,[1],80
same,Glucose,[2],210
same,HgbA1C,[2],6.1
same,Insulin (2-19.6),[2],24.8
same,Insulin Auto Ab (<0.4),[2],4
same,Islet Cell Ab Titers,[2],negative
same,Insulin Auto Ab (<0.4),[3],5.3
same,Islet Cell Ab Titers,[3],20
same,C-Peptide (0.8-3.85),[4],2.19
same,GAD-65 (<5),[4],<5
same,Glucose,[4],93
same,IA2 Ab (Islet cell Ab Screen) (<0.8),[4],47.3
same,Insulin (2-19.6),[4],12
same,Insulin Auto Ab (<0.4),[4],5
same,Islet Cell Ab Titers,[4],negative
same,C-Peptide (0.8-3.85),[5],1.34
same,Glucose,[5],85
same,HgbA1C,[5],6.2
same,IA2 Ab (Islet cell Ab Screen) (<0.8),[5],47.7
same,Insulin (2-19.6),[5],5.4
same,Insulin Auto Ab (<0.4),[5],4.6
same,Islet Cell Ab Titers,[5],20
same,C-Peptide (0.8-3.85),[6],2.74
same,GAD-65 (<5),[6],<5
same,Glucose,[6],143
same,HgbA1C,[6],6.3
same,IA2 Ab (Islet cell Ab Screen) (<0.8),[6],43.8
same,Insulin (2-19.6),[6],34.3
same,Insulin Auto Ab (<0.4),[6],4.2
same,C-Peptide (0.8-3.85),[7],3.17
same,IA2 Ab (Islet cell Ab Screen) (<0.8),[7],46.5
same,Insulin (2-19.6),[7],31.1
same,Insulin Auto Ab (<0.4),[7],2.4
same,Islet Cell Ab Titers,[7],20
same,HgbA1C,[8],6.9
same,IA2 Ab (Islet cell Ab Screen) (<0.8),[8],17
same,Insulin Auto Ab (<0.4),[8],2.1
same,Islet Cell Ab Titers,[8],negative
same,C-Peptide (0.8-3.85),[9],2.73
same,HgbA1C,[9],6.5
same,IA2 Ab (Islet cell Ab Screen) (<0.8),[9],35.7
same,Insulin (2-19.6),[9],25
same,Insulin Auto Ab (<0.4),[9],0.9
same,Islet Cell Ab Titers,[9],negative
same,C-Peptide (0.8-3.85),[10],2.14
same,GAD-65 (<5),[10],66
same,Glucose,[10],97
same,HgbA1C,[10],6.5
same,IA2 Ab (Islet cell Ab Screen) (<0.8),[10],30
same,Insulin (2-19.6),[10],14.8
same,Insulin Auto Ab (<0.4),[10],0.8
same,Islet Cell Ab Titers,[10],negative
same,C-Peptide (0.8-3.85),[11],5.21
same,GAD-65 (<5),[11],70
same,Glucose,[11],168
same,HgbA1C,[11],6.8
same,IA2 Ab (Islet cell Ab Screen) (<0.8),[11],25.9
same,Insulin (2-19.6),[11],47.3
same,Insulin Auto Ab (<0.4),[11],1
same,Islet Cell Ab Titers,[11],negative
same,C-Peptide (0.8-3.85),[12],4.3
same,GAD-65 (<5),[12],15
same,Glucose,[12],160
same,HgbA1C,[12],6.2
same,IA2 Ab (Islet cell Ab Screen) (<0.8),[12],39.4
same,Insulin (2-19.6),[12],37.2
same,Insulin Auto Ab (<0.4),[12],0.9
same,Islet Cell Ab Titers,[12],negative
same,C-Peptide (0.8-3.85),[13],1.38
same,GAD-65 (<5),[13],7
same,HgbA1C,[13],6.5
same,IA2 Ab (Islet cell Ab Screen) (<0.8),[13],38.8
same,Insulin (2-19.6),[13],7.7
same,Insulin Auto Ab (<0.4),[13],0.9
same,Islet Cell Ab Titers,[13],negative
same,C-Peptide (0.8-3.85),[14],1.22
same,GAD-65 (<5),[14],<5
same,Glucose,[14],112
same,HgbA1C,[14],6.3
same,IA2 Ab (Islet cell Ab Screen) (<0.8),[14],39.4
same,Insulin (2-19.6),[14],6.4
same,Insulin Auto Ab (<0.4),[14],1.7
same,Islet Cell Ab Titers,[14],negative
same,C-Peptide (0.8-3.85),[15],1.33
same,GAD-65 (<5),[15],<5
same,Glucose,[15],113
same,HgbA1C,[15],6.2
same,IA2 Ab (Islet cell Ab Screen) (<0.8),[15],39.2
same,Insulin (2-19.6),[15],6.6
same,Insulin Auto Ab (<0.4),[15],0.7
same,Islet Cell Ab Titers,[15],negative
same,C-Peptide (0.8-3.85),[16],1.61
same,GAD-65 (<5),[16],<5
same,Glucose,[16],85
same,HgbA1C,[16],6.4
same,IA2 Ab (Islet cell Ab Screen) (<0.8),[16],44.5
same,Insulin (2-19.6),[16],5.6
same,Insulin Auto Ab (<0.4),[16],0.5
same,Islet Cell Ab Titers,[16],negative
same,C-Peptide (0.8-3.85),[17],2.81
same,GAD-65 (<5),[17],<5
same,Glucose,[17],230
same,HgbA1C,[17],6.9
same,IA2 Ab (Islet cell Ab Screen) (<0.8),[17],46
same,Insulin (2-19.6),[17],24.1
same,Insulin Auto Ab (<0.4),[17],0.5
same,Islet Cell Ab Titers,[17],negative
same,C-Peptide (0.8-3.85),[18],1.68
same,GAD-65 (<5),[18],105
same,Glucose,[18],278
same,HgbA1C,[18],8.1
same,IA2 Ab (Islet cell Ab Screen) (<0.8),[18],6.5
same,Insulin (2-19.6),[18],6.1
same,Insulin Auto Ab (<0.4),[18],<0.4
same,Islet Cell Ab Titers,[18],negative
same,C-Peptide (0.8-3.85),[19],2.88
same,GAD-65 (<5),[19],131
same,Glucose,[19],148
same,HgbA1C,[19],7.8
same,IA2 Ab (Islet cell Ab Screen) (<0.8),[19],13.1
same,Insulin (2-19.6),[19],47.8
same,Insulin Auto Ab (<0.4),[19],<0.4
same,Islet Cell Ab Titers,[19],negative
same,C-Peptide (0.8-3.85),[20],2.36
same,GAD-65 (<5),[20],48
same,Glucose,[20],148
same,HgbA1C,[20],7.1
same,IA2 Ab (Islet cell Ab Screen) (<0.8),[20],25.6
same,Insulin (2-19.6),[20],33.7
same,Insulin Auto Ab (<0.4),[20],0.5
same,Islet Cell Ab Titers,[20],negative
same,C-Peptide (0.8-3.85),[21],1.41
same,GAD-65 (<5),[21],24
same,Glucose,[21],170
same,HgbA1C,[21],6.9
same,IA2 Ab (Islet cell Ab Screen) (<0.8),[21],26.5
same,Insulin (2-19.6),[21],14.3
same,Insulin Auto Ab (<0.4),[21],0.7
same,Islet Cell Ab Titers,[21],20

# Source: patent US10759865B2, “Treatment of diabetes mellitus” (priority 2017, dated 2020)
